{"source": "patent US10253039B2", "about": "“Inhibitors of bacterial DNA gyrase with efficacy against gram-negative bacteria” (priority 2014, dated 2019)", "data": [{"test_system": "E. coli BW25113", "experiment": "MIC, microdilution in 96-well plates", "assay_type": "cell-based", "conditions": "Escherichia coli, BW25113, B: E. coli BW25113; read-out: MIC", "summary_of_the_method": "(§1)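 Each of the 20 strains is tested in LB at a 1:10000 dilution of a growing subculture. Compound is titrated 2-fold in three replicates; a DMSO column serves as vehicle control. After shaking incubation at 37° C. for 16-18 hours, MIC is taken as the lowest clear concentration.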", "units": {"MIC": "µg/mL"}, "values": [{"smiles": "N#Cc1cccc(S(=O)(=O)N[C@@H]2CCN(Cc3ccc(-n4ccnn4)cc3)C2)c1", "note": "[Compound 7]", "MIC": "> 8"}, {"smiles": "CC(C)Oc1ccc(CN2CC[C@@H](NS(=O)(=O)c3cc(C#N)ccc3Cl)C2)cc1", "note": "[Compound 10]", "MIC": "> 8"}, {"smiles": "Cc1ccc(C(F)(F)F)cc1S(=O)(=O)N[C@@H]1CCN(Cc2ccc(-c3ccccc3)cc2)C1", "note": "[Compound 182]", "MIC": "> 8"}, {"smiles": "O=S(=O)(N[C@@H]1CCN(Cc2ccc(OC3CCCC3)cc2)C1)c1cccc(OC(F)(F)F)c1", "note": "[Compound 45]", "MIC": "> 8"}, {"smiles": "N#Cc1cccc(S(=O)(=O)N[C@@H]2CCN(Cc3ccn(-c4ccccc4)n3)C2)c1", "note": "[Compound 126]", "MIC": "> 8"}]}, {"test_system": "Edwardsiella tarda", "experiment": "MIC, microdilution in 96-well plates", "assay_type": "cell-based", "conditions": "D: Edwardsiella tarda", "summary_of_the_method": "as §1", "units": {"MIC": "µg/mL"}, "values": [{"smiles": "N#Cc1cccc(S(=O)(=O)N[C@@H]2CCN(Cc3ccc(-n4ccnn4)cc3)C2)c1", "note": "[Compound 7]", "MIC": "> 8"}, {"smiles": "CC(C)Oc1ccc(CN2CC[C@@H](NS(=O)(=O)c3cc(C#N)ccc3Cl)C2)cc1", "note": "[Compound 10]", "MIC": "> 8"}, {"smiles": "Cc1ccc(C(F)(F)F)cc1S(=O)(=O)N[C@@H]1CCN(Cc2ccc(-c3ccccc3)cc2)C1", "note": "[Compound 182]", "MIC": "> 8"}, {"smiles": "O=S(=O)(N[C@@H]1CCN(Cc2ccc(OC3CCCC3)cc2)C1)c1cccc(OC(F)(F)F)c1", "note": "[Compound 45]", "MIC": "> 8"}, {"smiles": "N#Cc1cccc(S(=O)(=O)N[C@@H]2CCN(Cc3ccn(-c4ccccc4)n3)C2)c1", "note": "[Compound 126]", "MIC": "> 8"}]}, {"test_system": "E. coli JW5503 (deltolC)", "experiment": "MIC, 20-strain panel", "assay_type": "cell-based", "conditions": "Escherichia coli, C: E. coli JW5503 (deltolC)", "summary_of_the_method": "as §1", "units": {"MIC": "µg/mL"}, "values": [{"smiles": "N#Cc1cccc(S(=O)(=O)N[C@@H]2CCN(Cc3ccc(-n4ccnn4)cc3)C2)c1", "note": "[Compound 7]", "MIC": 8}, {"smiles": "CC(C)Oc1ccc(CN2CC[C@@H](NS(=O)(=O)c3cc(C#N)ccc3Cl)C2)cc1", "note": "[Compound 10]", "MIC": 0.25}, {"smiles": "Cc1ccc(C(F)(F)F)cc1S(=O)(=O)N[C@@H]1CCN(Cc2ccc(-c3ccccc3)cc2)C1", "note": "[Compound 182]", "MIC": 4}, {"smiles": "O=S(=O)(N[C@@H]1CCN(Cc2ccc(OC3CCCC3)cc2)C1)c1cccc(OC(F)(F)F)c1", "note": "[Compound 45]", "MIC": 2}, {"smiles": "N#Cc1cccc(S(=O)(=O)N[C@@H]2CCN(Cc3ccn(-c4ccccc4)n3)C2)c1", "note": "[Compound 126]", "MIC": "> 8"}]}, {"test_system": "E. coli MG1655", "experiment": "MIC, 20-strain panel", "assay_type": "cell-based", "conditions": "Escherichia coli, MG1655, A: E. coli MG1655; read-out: MIC", "summary_of_the_method": "as §1", "units": {"MIC": "µg/mL"}, "values": [{"smiles": "N#Cc1cccc(S(=O)(=O)N[C@@H]2CCN(Cc3ccc(-n4ccnn4)cc3)C2)c1", "note": "[Compound 7]", "MIC": "> 8"}, {"smiles": "CC(C)Oc1ccc(CN2CC[C@@H](NS(=O)(=O)c3cc(C#N)ccc3Cl)C2)cc1", "note": "[Compound 10]", "MIC": "> 8"}, {"smiles": "Cc1ccc(C(F)(F)F)cc1S(=O)(=O)N[C@@H]1CCN(Cc2ccc(-c3ccccc3)cc2)C1", "note": "[Compound 182]", "MIC": "> 8"}, {"smiles": "O=S(=O)(N[C@@H]1CCN(Cc2ccc(OC3CCCC3)cc2)C1)c1cccc(OC(F)(F)F)c1", "note": "[Compound 45]", "MIC": "> 8"}, {"smiles": "N#Cc1cccc(S(=O)(=O)N[C@@H]2CCN(Cc3ccn(-c4ccccc4)n3)C2)c1", "note": "[Compound 126]", "MIC": "> 8"}]}, {"test_system": "Klebsiella pneumoniae subsp. pneumoniae", "experiment": "MIC, 20-strain panel", "assay_type": "cell-based", "conditions": "E: Klebsiella pneumoniae subsp. pneumoniae", "summary_of_the_method": "as §1", "units": {"MIC": "µg/mL"}, "values": [{"smiles": "N#Cc1cccc(S(=O)(=O)N[C@@H]2CCN(Cc3ccc(-n4ccnn4)cc3)C2)c1", "note": "[Compound 7]", "MIC": "> 8"}, {"smiles": "CC(C)Oc1ccc(CN2CC[C@@H](NS(=O)(=O)c3cc(C#N)ccc3Cl)C2)cc1", "note": "[Compound 10]", "MIC": "> 8"}, {"smiles": "Cc1ccc(C(F)(F)F)cc1S(=O)(=O)N[C@@H]1CCN(Cc2ccc(-c3ccccc3)cc2)C1", "note": "[Compound 182]", "MIC": "> 8"}, {"smiles": "O=S(=O)(N[C@@H]1CCN(Cc2ccc(OC3CCCC3)cc2)C1)c1cccc(OC(F)(F)F)c1", "note": "[Compound 45]", "MIC": "> 8"}, {"smiles": "N#Cc1cccc(S(=O)(=O)N[C@@H]2CCN(Cc3ccn(-c4ccccc4)n3)C2)c1", "note": "[Compound 126]", "MIC": "> 8"}]}, {"test_system": "Salmonella enterica subsp. enterica typhimurium", "experiment": "MIC, 20-strain panel", "assay_type": "cell-based", "conditions": "F: Salmonella enterica subsp. enterica Typhimurium", "summary_of_the_method": "as §1", "units": {"MIC": "µg/mL"}, "values": [{"smiles": "N#Cc1cccc(S(=O)(=O)N[C@@H]2CCN(Cc3ccc(-n4ccnn4)cc3)C2)c1", "note": "[Compound 7]", "MIC": "> 8"}, {"smiles": "CC(C)Oc1ccc(CN2CC[C@@H](NS(=O)(=O)c3cc(C#N)ccc3Cl)C2)cc1", "note": "[Compound 10]", "MIC": 8}, {"smiles": "Cc1ccc(C(F)(F)F)cc1S(=O)(=O)N[C@@H]1CCN(Cc2ccc(-c3ccccc3)cc2)C1", "note": "[Compound 182]", "MIC": "> 8"}, {"smiles": "O=S(=O)(N[C@@H]1CCN(Cc2ccc(OC3CCCC3)cc2)C1)c1cccc(OC(F)(F)F)c1", "note": "[Compound 45]", "MIC": "> 8"}, {"smiles": "N#Cc1cccc(S(=O)(=O)N[C@@H]2CCN(Cc3ccn(-c4ccccc4)n3)C2)c1", "note": "[Compound 126]", "MIC": "> 8"}]}, {"test_system": "Shigella flexneri", "experiment": "MIC, 20-strain panel", "assay_type": "cell-based", "conditions": "G: Shigella flexneri", "summary_of_the_method": "as §1", "units": {"MIC": "µg/mL"}, "values": [{"smiles": "N#Cc1cccc(S(=O)(=O)N[C@@H]2CCN(Cc3ccc(-n4ccnn4)cc3)C2)c1", "note": "[Compound 7]", "MIC": "> 8"}, {"smiles": "CC(C)Oc1ccc(CN2CC[C@@H](NS(=O)(=O)c3cc(C#N)ccc3Cl)C2)cc1", "note": "[Compound 10]", "MIC": "> 8"}, {"smiles": "Cc1ccc(C(F)(F)F)cc1S(=O)(=O)N[C@@H]1CCN(Cc2ccc(-c3ccccc3)cc2)C1", "note": "[Compound 182]", "MIC": "> 8"}, {"smiles": "O=S(=O)(N[C@@H]1CCN(Cc2ccc(OC3CCCC3)cc2)C1)c1cccc(OC(F)(F)F)c1", "note": "[Compound 45]", "MIC": "> 8"}, {"smiles": "N#Cc1cccc(S(=O)(=O)N[C@@H]2CCN(Cc3ccn(-c4ccccc4)n3)C2)c1", "note": "[Compound 126]", "MIC": "> 8"}]}, {"test_system": "Staphylococcus aureus subsp. aureus", "experiment": "MIC, 20-strain panel", "assay_type": "cell-based", "conditions": "H: Staphylococcus aureus subsp. aureus, read-out: MIC", "summary_of_the_method": "as §1", "units": {"MIC": "µg/mL"}, "values": [{"smiles": "N#Cc1cccc(S(=O)(=O)N[C@@H]2CCN(Cc3ccc(-n4ccnn4)cc3)C2)c1", "note": "[Compound 7]", "MIC": "> 8"}, {"smiles": "CC(C)Oc1ccc(CN2CC[C@@H](NS(=O)(=O)c3cc(C#N)ccc3Cl)C2)cc1", "note": "[Compound 10]", "MIC": "> 8"}, {"smiles": "Cc1ccc(C(F)(F)F)cc1S(=O)(=O)N[C@@H]1CCN(Cc2ccc(-c3ccccc3)cc2)C1", "note": "[Compound 182]", "MIC": "> 8"}, {"smiles": "O=S(=O)(N[C@@H]1CCN(Cc2ccc(OC3CCCC3)cc2)C1)c1cccc(OC(F)(F)F)c1", "note": "[Compound 45]", "MIC": "> 8"}, {"smiles": "N#Cc1cccc(S(=O)(=O)N[C@@H]2CCN(Cc3ccn(-c4ccccc4)n3)C2)c1", "note": "[Compound 126]", "MIC": "> 8"}]}, {"test_system": "Staphylococcus epidermidis", "experiment": "MIC, 20-strain panel", "assay_type": "cell-based", "conditions": "not given", "summary_of_the_method": "as §1", "units": {"MIC": "µg/mL"}, "values": [{"smiles": "N#Cc1cccc(S(=O)(=O)N[C@@H]2CCN(Cc3ccc(-n4ccnn4)cc3)C2)c1", "note": "[Compound 7]", "MIC": "> 8"}, {"smiles": "CC(C)Oc1ccc(CN2CC[C@@H](NS(=O)(=O)c3cc(C#N)ccc3Cl)C2)cc1", "note": "[Compound 10]", "MIC": "> 8"}, {"smiles": "Cc1ccc(C(F)(F)F)cc1S(=O)(=O)N[C@@H]1CCN(Cc2ccc(-c3ccccc3)cc2)C1", "note": "[Compound 182]", "MIC": 4}, {"smiles": "O=S(=O)(N[C@@H]1CCN(Cc2ccc(OC3CCCC3)cc2)C1)c1cccc(OC(F)(F)F)c1", "note": "[Compound 45]", "MIC": 8}, {"smiles": "N#Cc1cccc(S(=O)(=O)N[C@@H]2CCN(Cc3ccn(-c4ccccc4)n3)C2)c1", "note": "[Compound 126]", "MIC": "> 8"}]}, {"test_system": "Staphylococcus saprophyticus subsp. saprophyticus", "experiment": "MIC, 20-strain panel", "assay_type": "cell-based", "conditions": "not given", "summary_of_the_method": "as §1", "units": {"MIC": "µg/mL"}, "values": [{"smiles": "N#Cc1cccc(S(=O)(=O)N[C@@H]2CCN(Cc3ccc(-n4ccnn4)cc3)C2)c1", "note": "[Compound 7]", "MIC": "> 8"}, {"smiles": "CC(C)Oc1ccc(CN2CC[C@@H](NS(=O)(=O)c3cc(C#N)ccc3Cl)C2)cc1", "note": "[Compound 10]", "MIC": "> 8"}, {"smiles": "Cc1ccc(C(F)(F)F)cc1S(=O)(=O)N[C@@H]1CCN(Cc2ccc(-c3ccccc3)cc2)C1", "note": "[Compound 182]", "MIC": "> 8"}, {"smiles": "O=S(=O)(N[C@@H]1CCN(Cc2ccc(OC3CCCC3)cc2)C1)c1cccc(OC(F)(F)F)c1", "note": "[Compound 45]", "MIC": "> 8"}, {"smiles": "N#Cc1cccc(S(=O)(=O)N[C@@H]2CCN(Cc3ccn(-c4ccccc4)n3)C2)c1", "note": "[Compound 126]", "MIC": "> 8"}]}, {"test_system": "Streptococcus agalactiae", "experiment": "MIC, 20-strain panel", "assay_type": "cell-based", "conditions": "not given", "summary_of_the_method": "as §1", "units": {"MIC": "µg/mL"}, "values": [{"smiles": "N#Cc1cccc(S(=O)(=O)N[C@@H]2CCN(Cc3ccc(-n4ccnn4)cc3)C2)c1", "note": "[Compound 7]", "MIC": "> 8"}, {"smiles": "CC(C)Oc1ccc(CN2CC[C@@H](NS(=O)(=O)c3cc(C#N)ccc3Cl)C2)cc1", "note": "[Compound 10]", "MIC": "> 8"}, {"smiles": "Cc1ccc(C(F)(F)F)cc1S(=O)(=O)N[C@@H]1CCN(Cc2ccc(-c3ccccc3)cc2)C1", "note": "[Compound 182]", "MIC": "> 8"}, {"smiles": "O=S(=O)(N[C@@H]1CCN(Cc2ccc(OC3CCCC3)cc2)C1)c1cccc(OC(F)(F)F)c1", "note": "[Compound 45]", "MIC": "> 8"}, {"smiles": "N#Cc1cccc(S(=O)(=O)N[C@@H]2CCN(Cc3ccn(-c4ccccc4)n3)C2)c1", "note": "[Compound 126]", "MIC": "> 8"}]}, {"test_system": "Streptococcus pyogenes", "experiment": "MIC, 20-strain panel", "assay_type": "cell-based", "conditions": "not given", "summary_of_the_method": "as §1", "units": {"MIC": "µg/mL"}, "values": [{"smiles": "N#Cc1cccc(S(=O)(=O)N[C@@H]2CCN(Cc3ccc(-n4ccnn4)cc3)C2)c1", "note": "[Compound 7]", "MIC": "> 8"}, {"smiles": "CC(C)Oc1ccc(CN2CC[C@@H](NS(=O)(=O)c3cc(C#N)ccc3Cl)C2)cc1", "note": "[Compound 10]", "MIC": "> 8"}, {"smiles": "Cc1ccc(C(F)(F)F)cc1S(=O)(=O)N[C@@H]1CCN(Cc2ccc(-c3ccccc3)cc2)C1", "note": "[Compound 182]", "MIC": "~8"}, {"smiles": "O=S(=O)(N[C@@H]1CCN(Cc2ccc(OC3CCCC3)cc2)C1)c1cccc(OC(F)(F)F)c1", "note": "[Compound 45]", "MIC": "> 8"}, {"smiles": "N#Cc1cccc(S(=O)(=O)N[C@@H]2CCN(Cc3ccn(-c4ccccc4)n3)C2)c1", "note": "[Compound 126]", "MIC": "> 8"}]}]}
